Data on 15 compounds can be found in patent publication EP3057950B1, “PHENYL LINKED QUINOLINYL MODULATORS OF ROR-GAMMA-T” (Janssen Pharmaceutica NV, priority 2013, dated 2015).

Assay [1] deals with IL-17 production by CD4 T cells. Description: Human Th17 Assay (IL-17 production by CD4 T cells under Th17 differentiation conditions). Type of assay: cell-based. Particulars: 3 days, IL-17 in supernatant. Here is the method:
The human Th17 assay tests the effect of RORγt modulatory compounds on IL-17 production by CD4 T cells under conditions which favor Th17 differentiation. Total CD4^+ T cells were isolated from the peripheral blood mononuclear cells (PBMC) of healthy donors using a CD4^+ T cell isolation kit II, following the manufacturer's instructions (Miltenyi Biotec). […] 50 µL of compound at titrated concentrations in DMSO were added into each well at final DMSO concentration at 0.2%. Cells were incubated for 1 hour, then 50 µL of Th17 cell differentiation medium was added to each well. The final concentrations of antibodies and cytokines (R&D Systems) in differentiation medium were: 3x10^6/mL anti-CD3/CD28 beads (prepared using human T cell activation/expansion kit, Miltenyi Biotec), 10 µg/mL anti-IL4, 10 µg/mL anti-IFNγ, 10 ng/mL […], 10 ng/mL IL23, 50 ng/mL IL6, 3 ng/mL TGFβ and 20 U/mL IL2. Cells were cultured at 37 °C and 5% CO2 for 3 days. Supernatants were collected and the accumulated IL-17 in culture was measured by using MULTI-SPOT® Cytokine Plate following manufacture's instruction (Meso Scale Discovery). The plate was read using Sector Imager 6000, and IL-17 concentration was extrapolated from the standard curve. The IC50s were determined by GraphPad.

For assay [2], the target named is T1, wild type human RORγt ligand binding domain (RORγt LBD) (Homo sapiens, UniProt P51449).
T1 construct: His-tag (N); TurboTEV protease cleavage site (ENLYFQG) (N); made in house; host or cells: E. coli (pHIS1, modified pET expression vector)
T1 sequence (P51449 269-508 limits assumed): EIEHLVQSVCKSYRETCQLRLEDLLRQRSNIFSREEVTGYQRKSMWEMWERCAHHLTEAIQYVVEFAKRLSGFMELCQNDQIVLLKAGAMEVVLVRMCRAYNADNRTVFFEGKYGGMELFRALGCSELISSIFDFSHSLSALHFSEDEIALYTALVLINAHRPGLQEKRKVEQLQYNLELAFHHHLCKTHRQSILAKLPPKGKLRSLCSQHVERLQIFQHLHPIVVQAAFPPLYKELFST
Put plainly: RORγt ThermoFluor® Assay (thermal shift, binding affinity). Particulars: pH 7.0, estimated from concentration response curves. The procedure, abridged:
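Thermal shift assay on 0.065 mg/mL RORγt LBD with 60 µM 1,8-ANS in 100 mM Hepes pH 7.0, 10 mM NaCl, 2.5 mM GSH, 0.002% Tween-20. Heated at 1 °C/min, fluorescence read at 500 nm.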

Assay [3] concerns the target T2, wild type human RORγt LBD (Homo sapiens, UniProt P51449).
T2 construct: expressed in transfected cells; host or cells: HEK293T
T2 sequence (P51449 269-508 limits assumed): T1 sequence (P51449 269-508 limits assumed)
Description: RORγt Reporter Assay (GAL4-RORγt LBD luciferase in HEK293T cells). Type of assay: cell-based. The note with it: HEK293T cells; for IC50: compounds for 24 hours, read-out: RORγt reporter Assay, IC50; for inhibition at 6 µM: HEK-293T, read-out: RORγt reporter Assay, % inhibition @ 6 µM, @ 6 µM. The procedure, abridged: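 HEK293T cells transiently co-transfected with GAL4-DBD–human RORγt LBD (or AF2 mutant) and GAL4-responsive firefly luciferase reporter; renilla luciferase normalised transfection and viability. Compounds applied 24 h in 5% lipid-reduced FCS; firefly/renilla ratio plotted against concentration.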
(In general: In a reporter assay the amount or activity of a reporter protein is the signal.)

`COc1nc2ccc(C(O)(c3cncn3C)C3CCN(C(C)=O)CC3)cc2c(Cl)c1-c1cccc(C(F)(F)F)c1` (single isomer, unassigned) [Example 1c, 1-(4-((4-Chloro-2-methoxy-3-(3-(trifluoromethyl)phenyl)quinolin-6-yl)(hydroxy)(1-methyl-1H-imidazol-5-yl)methyl)piperidin-1-yl)ethanone] came in with an IC50 in assay [1] of 310 nM. In assay [2], the Kd was 33 nM. Moreover, in assay [3], the “RORγt reporter Assay, % inhibition @ 6 µM” value worked out at 95% and the 50% inhibitory concentration (IC50) is 110 nM.

For the compound `COc1nc2ccc(C(O)(c3cncn3C)C3CCN(C(C)=O)CC3)cc2c(C#N)c1-c1cccc(C(F)(F)F)c1` (single isomer, unassigned) [Example 2b, 6-((1-Acetylpiperidin-4-yl)(hydroxy)(1-methyl-1H-imidazol-5-yl)methyl)-2-methoxy-3-(3-(trifluoromethyl)phenyl)quinoline-4-carbonitrile], the half-maximal inhibitory concentration (IC50) in assay [1] turned out to be 2900 nM; in assay [3] it was 200 nM. The Kd in assay [2] is 130 nM. For the same compound, in assay [3], the inhibition at 6 µM came to 91%.

As for `COc1nc2ccc(C(O)(c3cncn3C)C3CCN(C(C)=O)CC3)cc2c(C#N)c1-c1cccc(C(F)(F)F)c1` (single isomer, unassigned) [Example 2c, 6-((1-Acetylpiperidin-4-yl)(hydroxy)(1-methyl-1H-imidazol-5-yl)methyl)-2-methoxy-3-(3-(trifluoromethyl)phenyl)quinoline-4-carbonitrile], the IC50 in assay [1] turned out to be 670 nM. Further, the equilibrium dissociation constant (Kd) in assay [2] is 140 nM. Besides, in assay [3], the “RORγt reporter Assay, % inhibition @ 6 µM” value is 95% and the IC50 came out at 170 nM.

For `COc1nc2ccc(C(O)(c3cncn3C)c3cnnn3C)cc2c(Cl)c1-c1cccc(C(F)(F)F)c1` (single isomer, unassigned) [Example 3b, (4-Chloro-2-methoxy-3-(3-(trifluoromethyl)phenyl)quinolin-6-yl)(1-methyl-1H-1,2,3-triazol-5-yl)(1-methyl-1H-imidazol-5-yl)methanol], the IC50 was 13 nM in assay [1] and 3 nM in assay [3]. Further, the dissociation constant Kd in assay [2] was 0.56 nM. Also, the inhibition at 6 µM in assay [3] worked out at 96%.

For the compound `COc1nc2ccc(C(O)(c3cncn3C)c3cnnn3C)cc2c(Cl)c1-c1cccc(C(F)(F)F)c1` (single isomer, unassigned) [Example 3c, (4-Chloro-2-methoxy-3-(3-(trifluoromethyl)phenyl)quinolin-6-yl)(1-methyl-1H-1,2,3-triazol-5-yl)(1-methyl-1H-imidazol-5-yl)methanol], the concentration for half-maximal inhibition (IC50) was 43 nM in assay [1] and 6.6 nM in assay [3]. Besides, the Kd in assay [2] was 2.3 nM. The “RORγt reporter Assay, % inhibition @ 6 µM” value in assay [3] came out at 98%.

`COc1nc2ccc(C(O)(c3cncn3C)c3cnnn3C)cc2c(C#N)c1-c1cccc(C(F)(F)F)c1` (single isomer, unassigned) [Example 4b, 6-(Hydroxy(1-methyl-1H-1,2,3-triazol-5-yl)(1-methyl-1H-imidazol-5-yl)methyl)-2-methoxy-3-(3-(trifluoromethyl)phenyl)quinoline-4-carbonitrile] came in with an IC50 in assay [1] (Homo sapiens, CD4+ T, 72 h) of 61 nM. In assay [2], the Kd is 4.4 nM. Besides, in assay [3], the 50% inhibitory concentration (IC50) came to 9.5 nM and the inhibition at 6 µM came to 98%.

Compound `COc1nc2ccc(C(O)(c3cncn3C)c3cnnn3C)cc2c(C#N)c1-c1cccc(C(F)(F)F)c1` (single isomer, unassigned) [Example 4c, 6-(Hydroxy(1-methyl-1H-1,2,3-triazol-5-yl)(1-methyl-1H-imidazol-5-yl)methyl)-2-methoxy-3-(3-(trifluoromethyl)phenyl)quinoline-4-carbonitrile] showed a half-maximal inhibitory concentration (IC50) in assay [1] of 31 nM. The equilibrium dissociation constant (Kd) in assay [2] was 1.4 nM. Besides, in assay [3], the “RORγt reporter Assay, % inhibition @ 6 µM” value stood at 98% and the half-maximal inhibitory concentration (IC50) was 11 nM.

Take `COc1nc2ccc(C(O)(c3ccc(C(F)(F)F)nc3)c3cncn3C)cc2c(Cl)c1-c1ccc(Cl)s1` (single isomer, unassigned) [Example 14b, [4-Chloro-3-(5-chlorothiophen-2-yl)-2-methoxyquinolin-6-yl](1-methyl-1H-imidazol-5-yl)[6-(trifluoromethyl)pyridin-3-yl]methanol]: half-maximal inhibition in assay [1] (IC50) required 79 nM. The Kd in assay [2] is 5.2 nM. In addition, in assay [3], the “RORγt reporter Assay, % inhibition @ 6 µM” value turned out to be 53% and the 50% inhibitory concentration (IC50) turned out to be 240 nM.

The compound `COc1nc2ccc(C(O)(c3ccc(C(F)(F)F)nc3)c3cncn3C)cc2c(Cl)c1-c1ccc(Cl)s1` (single isomer, unassigned) [Example 14c, [4-Chloro-3-(5-chlorothiophen-2-yl)-2-methoxyquinolin-6-yl](1-methyl-1H-imidazol-5-yl)[6-(trifluoromethyl)pyridin-3-yl]methanol] displayed a concentration for half-maximal inhibition (IC50) in assay [1] of 310 nM. In addition, in assay [2], the Kd is 140 nM. Also, in assay [3], the “RORγt reporter Assay, % inhibition @ 6 µM” value is on record as 87% and the 50% inhibitory concentration (IC50) amounted to 510 nM.

In assay [1] (Homo sapiens, CD4+ T, 72 h), `COc1nc2c(C)cc(C(O)(c3ccc(C(F)(F)F)nc3)c3cncn3C)cc2c(C#N)c1-c1ccc(OC(F)(F)F)cc1` (single isomer, unassigned) [Example 19b, 6-(Hydroxy(1-methyl-1H-imidazol-5-yl)(6-(trifluoromethyl)pyridin-3-yl)methyl)-2-methoxy-8-methyl-3-(4-(trifluoromethoxy)phenyl)quinoline-4-carbonitrile] displayed a concentration for half-maximal inhibition (IC50) of 400 nM. For the same compound, the Kd in assay [2] was 360 nM. Also, in assay [3], the “RORγt reporter Assay, % inhibition @ 6 µM” value came to 94% and the concentration for half-maximal inhibition (IC50) is 300 nM.

In the case of `CC(=O)N1CCC(C(O)(c2ccccc2)c2cc(C)c3nc(C#N)c(-c4ccccc4)c(C#N)c3c2)CC1` (single isomer, unassigned) [Example 21c, 6-((1-Acetylpiperidin-4-yl)(hydroxy)(phenyl)methyl)-8-methyl-3-phenylquinoline-2,4-dicarbonitrile], the concentration for half-maximal inhibition (IC50) in assay [1] (Homo sapiens, CD4+ T, 72 h) was found to be 180 nM. Besides, the Kd in assay [2] was 110 nM. In assay [3], the “RORγt reporter Assay, % inhibition @ 6 µM” value worked out at 96% and the concentration for half-maximal inhibition (IC50) was 190 nM.

`Cc1cc(C(O)(c2ccc(Cl)cc2)c2cncn2C)cc2c(C#N)c(-c3ccccc3)c(C#N)nc12` (single isomer, unassigned) [Example 23c, 6-((4-Chlorophenyl)(hydroxy)(1-methyl-1H-imidazol-5-yl)methyl)-8-methyl-3-phenylquinoline-2,4-dicarbonitrile] displayed a half-maximal inhibitory concentration (IC50) in assay [1] (Homo sapiens, CD4+ T, 72 h) of 400 nM. Besides, the Kd in assay [2] was 150 nM. In addition, in assay [3], the “RORγt reporter Assay, % inhibition @ 6 µM” value was determined as 100% and the IC50 came out at 230 nM.

Turning to `Cc1cc(C(O)(c2ccc(C(F)(F)F)nc2)c2cncn2C)cc2c(C#N)c(-c3ccccc3)c(C#N)nc12` (single isomer, unassigned) [Example 25c, 6-(Hydroxy(1-methyl-1H-imidazol-5-yl)(6-(trifluoromethyl)pyridin-3-yl)methyl)-8-methyl-3-phenylquinoline-2,4-dicarbonitrile], the 50% inhibitory concentration (IC50) in assay [1] (Homo sapiens, CD4+ T, 72 h) is 160 nM. Moreover, in assay [2], the dissociation constant Kd was 61 nM. Moreover, in assay [3], the “RORγt reporter Assay, % inhibition @ 6 µM” value came to 95% and the IC50 came out at 160 nM.

As for `COc1c(-c2ccccc2)c(C(F)(F)F)nc2ccc(C(O)(c3ccc(Cl)cc3)c3cncn3C)cc12` (single isomer, unassigned) [Example 33c, (4-Chlorophenyl)(4-methoxy-3-phenyl-2-(trifluoromethyl)quinolin-6-yl)(1-methyl-1H-imidazol-5-yl)methanol], in assay [1] (Homo sapiens, CD4+ T, 72 h), the IC50 was 290 nM. Besides, the Kd in assay [2] is 77 nM. For the same compound, in assay [3], the “RORγt reporter Assay, % inhibition @ 6 µM” value is 99% and the half-inhibitory concentration (IC50) came out at 130 nM.

In the case of `CC(=O)N1CCC(C(O)(c2ccc3nc(C(F)(F)F)c(-c4ccccc4)c(Cl)c3c2)c2cncn2C)CC1` (single isomer, unassigned) [Example 34c, 1-(4-((4-Chloro-3-phenyl-2-(trifluoromethyl)quinolin-6-yl)(hydroxy)(1-methyl-1H-imidazol-5-yl)methyl)piperidin-1-yl)ethanone], inhibition in assay [1] (Homo sapiens, CD4+ T, 72 h) was half-maximal at 260 nM (IC50). Besides, in assay [2], the equilibrium dissociation constant (Kd) is 100 nM. Besides, in assay [3], the “RORγt reporter Assay, % inhibition @ 6 µM” value is listed as 96% and the concentration for half-maximal inhibition (IC50) is 270 nM.

By IC50 is commonly meant the concentration needed to halve the response being measured. A word on the Kd: it is the free concentration of one partner at which half of the binding sites on the other are occupied at equilibrium, for simple one-to-one binding. The term inhibition denotes the relative decrease from the control value, in per cent.
